Reference: ChEMBL document CHEMBL1201862, “PubChem BioAssay data set” (2004)
Activity calls are given as the source filed them.

Columns and labels:
[1] = biological target: Ras and Rab interactor 1/Tyrosine-protein kinase ABL1 (Homo sapiens, UniProt P00519+Q13671); assay type: functional;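 also: biochemical TR-FRET dose-response test measuring inhibition of binding between Rin1 and Abl proteins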
[2] = biological target: T1, Mitochondrial peptide methionine sulfoxide reductase (Bos taurus, UniProt P54149); assay: Absorbance-based biochemical high throughput dose response assay for activators of Methionine sulfoxide reductase A (MsrA).; assay type: functional
T1 sequence (P54149 whole entry, the tested form may be a part): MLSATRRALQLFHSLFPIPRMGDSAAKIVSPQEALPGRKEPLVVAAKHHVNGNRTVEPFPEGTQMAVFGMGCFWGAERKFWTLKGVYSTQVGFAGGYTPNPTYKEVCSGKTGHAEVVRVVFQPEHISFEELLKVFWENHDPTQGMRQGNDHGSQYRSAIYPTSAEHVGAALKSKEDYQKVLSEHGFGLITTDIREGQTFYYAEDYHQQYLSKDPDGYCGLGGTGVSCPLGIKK

[3] = biological target: Photoreceptor-specific nuclear receptor (Homo sapiens, UniProt Q9Y5X4); assay type: functional, cell-based;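 also: CHO-S cells with Gal4-NCOR and VP16-NR2E3 two-hybrid luciferase reporter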
Sequence of Photoreceptor-specific nuclear receptor (Q9Y5X4 whole entry, the tested form may be a part): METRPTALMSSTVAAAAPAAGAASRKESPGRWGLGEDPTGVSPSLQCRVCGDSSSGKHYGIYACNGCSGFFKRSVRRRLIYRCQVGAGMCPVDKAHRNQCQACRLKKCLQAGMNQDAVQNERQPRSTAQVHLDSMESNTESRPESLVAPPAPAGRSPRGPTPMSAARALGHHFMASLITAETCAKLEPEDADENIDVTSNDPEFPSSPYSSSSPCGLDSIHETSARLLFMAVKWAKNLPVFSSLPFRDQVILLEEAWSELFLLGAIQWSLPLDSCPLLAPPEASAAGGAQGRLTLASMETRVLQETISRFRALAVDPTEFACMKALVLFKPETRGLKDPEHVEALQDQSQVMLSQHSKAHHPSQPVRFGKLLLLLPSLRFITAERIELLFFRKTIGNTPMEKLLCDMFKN

Paired box protein Pax-8 = Paired box protein Pax-8 (Homo sapiens, UniProt Q06710); assay: inhibitors of PAX8-driven TPO luciferase reporter, dose response, RMG-I cells, cherry-pick (AID 687027); assay type: functional, cell-based;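 also: luciferase reporter driven by Pax8 target thyroperoxidase promoter measured by SteadyGlo luminescence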
Sequence of Paired box protein Pax-8 (Q06710 whole entry): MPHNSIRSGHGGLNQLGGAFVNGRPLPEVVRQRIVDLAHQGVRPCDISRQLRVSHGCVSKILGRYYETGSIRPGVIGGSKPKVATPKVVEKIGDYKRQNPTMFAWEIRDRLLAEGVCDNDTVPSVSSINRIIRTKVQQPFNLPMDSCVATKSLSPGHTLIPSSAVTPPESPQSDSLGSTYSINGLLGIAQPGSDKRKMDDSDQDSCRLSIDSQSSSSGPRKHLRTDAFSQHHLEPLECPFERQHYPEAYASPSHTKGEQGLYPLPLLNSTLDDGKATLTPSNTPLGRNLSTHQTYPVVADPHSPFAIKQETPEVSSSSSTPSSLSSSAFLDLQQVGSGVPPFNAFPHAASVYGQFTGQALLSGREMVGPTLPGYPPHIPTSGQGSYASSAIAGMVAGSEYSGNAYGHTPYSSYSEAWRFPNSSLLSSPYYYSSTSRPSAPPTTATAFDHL

[4] = biological target: T2, Histone-lysine N-methyltransferase NSD2 (Homo sapiens, UniProt O96028); assay type: biochemical
T2 sequence (O96028 whole entry): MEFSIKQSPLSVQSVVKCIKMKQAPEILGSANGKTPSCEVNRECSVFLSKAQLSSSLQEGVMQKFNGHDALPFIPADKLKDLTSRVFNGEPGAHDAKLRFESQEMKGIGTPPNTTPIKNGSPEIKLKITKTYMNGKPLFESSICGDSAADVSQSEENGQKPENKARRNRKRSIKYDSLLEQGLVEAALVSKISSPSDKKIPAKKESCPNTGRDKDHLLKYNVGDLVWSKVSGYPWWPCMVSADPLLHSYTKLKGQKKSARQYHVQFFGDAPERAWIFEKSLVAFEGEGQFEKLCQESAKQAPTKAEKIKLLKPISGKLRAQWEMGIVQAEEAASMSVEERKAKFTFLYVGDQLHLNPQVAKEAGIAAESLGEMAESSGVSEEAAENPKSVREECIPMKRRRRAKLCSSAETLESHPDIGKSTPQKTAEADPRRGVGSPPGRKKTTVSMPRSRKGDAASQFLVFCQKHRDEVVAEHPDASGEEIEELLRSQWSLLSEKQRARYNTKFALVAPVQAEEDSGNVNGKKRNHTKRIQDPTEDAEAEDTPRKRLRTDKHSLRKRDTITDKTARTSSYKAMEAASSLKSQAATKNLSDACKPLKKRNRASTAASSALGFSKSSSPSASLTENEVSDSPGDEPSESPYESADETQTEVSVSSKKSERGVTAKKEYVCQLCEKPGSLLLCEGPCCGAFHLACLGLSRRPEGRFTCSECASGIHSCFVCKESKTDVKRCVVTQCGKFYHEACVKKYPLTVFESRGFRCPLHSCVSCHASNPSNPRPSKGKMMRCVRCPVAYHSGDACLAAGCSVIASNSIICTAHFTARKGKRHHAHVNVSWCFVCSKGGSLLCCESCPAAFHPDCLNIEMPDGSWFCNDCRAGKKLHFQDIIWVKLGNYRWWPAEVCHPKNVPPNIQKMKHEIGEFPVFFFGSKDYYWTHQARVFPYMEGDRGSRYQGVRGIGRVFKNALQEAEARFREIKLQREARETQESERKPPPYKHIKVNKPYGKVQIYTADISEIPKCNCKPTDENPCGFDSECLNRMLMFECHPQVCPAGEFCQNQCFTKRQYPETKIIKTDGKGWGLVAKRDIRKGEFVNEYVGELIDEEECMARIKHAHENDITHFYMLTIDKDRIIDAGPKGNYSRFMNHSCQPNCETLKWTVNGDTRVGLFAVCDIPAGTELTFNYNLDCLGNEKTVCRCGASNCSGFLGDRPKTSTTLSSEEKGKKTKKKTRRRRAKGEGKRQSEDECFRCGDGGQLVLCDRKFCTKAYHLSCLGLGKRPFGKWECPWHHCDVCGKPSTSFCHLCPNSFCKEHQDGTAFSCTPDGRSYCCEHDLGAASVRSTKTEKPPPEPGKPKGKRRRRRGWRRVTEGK

[5] = biological target: T3, Tyrosyl-DNA phosphodiesterase 2 (Homo sapiens, UniProt O95551); assay: human TDP2 enzyme inhibitors, dose response, biochemical, epi absorbance, IC50 (AID 743297)
T3 sequence (O95551 whole entry): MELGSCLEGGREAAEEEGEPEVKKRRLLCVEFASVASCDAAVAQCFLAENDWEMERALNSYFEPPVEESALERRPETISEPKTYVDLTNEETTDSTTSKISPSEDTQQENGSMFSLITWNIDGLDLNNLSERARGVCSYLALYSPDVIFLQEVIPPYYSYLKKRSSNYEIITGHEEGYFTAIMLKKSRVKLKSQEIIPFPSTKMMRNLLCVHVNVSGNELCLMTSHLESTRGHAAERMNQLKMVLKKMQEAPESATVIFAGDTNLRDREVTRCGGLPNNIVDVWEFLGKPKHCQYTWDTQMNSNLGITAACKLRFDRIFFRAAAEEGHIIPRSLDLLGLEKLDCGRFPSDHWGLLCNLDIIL

[6] = biological target: 1-phosphatidylinositol 4,5-bisphosphate phosphodiesterase gamma-1 (Homo sapiens, UniProt P19174); assay: Counterscreen for inhibitors of phospholipase C isozymes (PLC-B3): Fluorescence-based biochemical high throughput dose response assay to identify inhibitors of phospholipase C isozymes (PLC-gamma1).
[7] = non-specific cell cytotoxicity, dose response, cytotoxicity control for PAX8 inhibitor project, plate reader, dry powder samples (AID 743021); assay type: functional, cell-based
[8] = biological target: 1-phosphatidylinositol 4,5-bisphosphate phosphodiesterase beta-3 (Homo sapiens, UniProt Q01970); assay: Fluorescence-based biochemical high throughput dose response assay to identify inhibitors of phospholipase C isozymes (PLC-B3).
Sequence of 1-phosphatidylinositol 4,5-bisphosphate phosphodiesterase beta-3 (Q01970 whole entry): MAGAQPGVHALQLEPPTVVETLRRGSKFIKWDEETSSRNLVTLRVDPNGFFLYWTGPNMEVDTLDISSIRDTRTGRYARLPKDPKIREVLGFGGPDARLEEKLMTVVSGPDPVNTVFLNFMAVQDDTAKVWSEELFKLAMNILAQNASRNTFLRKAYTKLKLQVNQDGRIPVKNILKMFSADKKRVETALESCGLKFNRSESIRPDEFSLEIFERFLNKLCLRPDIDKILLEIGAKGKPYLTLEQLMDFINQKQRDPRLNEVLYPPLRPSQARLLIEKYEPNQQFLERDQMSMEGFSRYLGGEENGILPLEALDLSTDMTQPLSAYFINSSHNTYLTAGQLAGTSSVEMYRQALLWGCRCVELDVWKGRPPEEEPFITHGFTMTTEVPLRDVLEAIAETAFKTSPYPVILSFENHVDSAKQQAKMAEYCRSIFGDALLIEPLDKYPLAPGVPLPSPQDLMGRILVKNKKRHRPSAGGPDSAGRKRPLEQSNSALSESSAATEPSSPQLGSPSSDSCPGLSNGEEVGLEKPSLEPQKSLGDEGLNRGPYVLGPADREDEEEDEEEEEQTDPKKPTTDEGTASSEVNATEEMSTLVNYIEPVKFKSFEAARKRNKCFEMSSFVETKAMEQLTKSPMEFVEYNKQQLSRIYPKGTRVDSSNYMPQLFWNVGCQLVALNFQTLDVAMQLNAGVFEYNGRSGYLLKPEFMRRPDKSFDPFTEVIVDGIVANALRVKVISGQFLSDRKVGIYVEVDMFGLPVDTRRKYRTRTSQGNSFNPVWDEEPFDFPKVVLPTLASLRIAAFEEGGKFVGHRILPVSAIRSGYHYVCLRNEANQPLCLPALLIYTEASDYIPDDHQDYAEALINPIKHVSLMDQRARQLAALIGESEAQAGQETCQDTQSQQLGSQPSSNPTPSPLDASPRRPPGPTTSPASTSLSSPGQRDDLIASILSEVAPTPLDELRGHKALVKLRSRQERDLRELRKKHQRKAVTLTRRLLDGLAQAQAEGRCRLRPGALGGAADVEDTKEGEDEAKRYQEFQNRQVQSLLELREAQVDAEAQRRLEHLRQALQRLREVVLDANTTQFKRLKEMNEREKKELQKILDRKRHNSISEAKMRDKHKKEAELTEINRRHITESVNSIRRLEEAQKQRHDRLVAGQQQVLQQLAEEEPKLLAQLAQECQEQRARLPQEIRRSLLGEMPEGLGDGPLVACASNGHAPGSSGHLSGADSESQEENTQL

[9] = biological target: RNA-editing ligase 1, mitochondrial (Trypanosoma brucei brucei, UniProt P86926); assay: TbREL1 ligase inhibitors, dose response, biochemical, fluorescence, Trypanosoma brucei (AID 1117295); assay type: functional
Sequence of RNA-editing ligase 1, mitochondrial (P86926 whole entry, the tested form may be a part): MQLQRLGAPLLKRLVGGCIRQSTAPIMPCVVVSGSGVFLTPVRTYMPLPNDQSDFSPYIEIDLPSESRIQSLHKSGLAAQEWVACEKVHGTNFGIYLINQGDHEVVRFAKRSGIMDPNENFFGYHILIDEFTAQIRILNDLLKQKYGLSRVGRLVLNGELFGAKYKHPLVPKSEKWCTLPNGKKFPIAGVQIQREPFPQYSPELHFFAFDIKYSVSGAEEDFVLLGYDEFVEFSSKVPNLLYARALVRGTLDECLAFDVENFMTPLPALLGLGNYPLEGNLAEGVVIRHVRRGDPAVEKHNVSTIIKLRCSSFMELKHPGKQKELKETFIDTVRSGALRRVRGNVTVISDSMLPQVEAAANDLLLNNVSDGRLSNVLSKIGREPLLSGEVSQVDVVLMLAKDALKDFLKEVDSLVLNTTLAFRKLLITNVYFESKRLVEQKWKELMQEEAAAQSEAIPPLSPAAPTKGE

[10] = ARNT/TACC3 interaction disruptors, potency, confirmation, biochemical, AlphaScreen, cherry-picked samples (AID 651703); assay type: functional, Homo sapiens;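 also: His-tagged ARNT PAS-B domain paired with GST-TACC3 E629A dimer coactivator fragment; potency of inhibitors that break up the complex and lower AlphaScreen signal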
[11] = biological target: T1, Mitochondrial peptide methionine sulfoxide reductase; assay type: functional
[12] = inhibitors of firefly luciferase expression or activity, dose response, H4 neuroglioma cells, luminescence (AID 1990); assay type: functional, cell-based
BJ [13] = assay: cytotoxicity toward BJ-TERT fibroblasts, dose response, cell-based, RAS-independent, luminescence (AID 1933); assay type: functional; details: Homo sapiens
[14] = Luminescence Cell-Based Dose Response HTS to Identify Inhibitors of 5'UTR Stem-Loop Driven Prion Protein mRNA Translation in H4 Neuroglioblastoma Cells. [Related pubchem assays: 1827 (Project Summary), 1813 (Primary HTS)]; assay type: functional
[15] = inhibitors of SNCA 5'UTR-driven reporter translation, confirmation, H4 neuroglioma cells, luminescence (AID 1988); assay type: functional, cell-based
BJ [16] = assay: cells; assay type: functional, cell-based; details: Homo sapiens
BJ [17] = assay: cytotoxicity toward BJ-TERT-LT-ST fibroblasts, dose response, cell-based, RAS-independent, luminescence (AID 1935); assay type: functional; details: Homo sapiens;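 also: BJ fibroblasts immortalized with TERT plus LT and ST oncogenes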
[18] = cytotoxicity toward DRD oncogenic fibroblasts, dose response, cell-based, non-viral oncogenic, luminescence (AID 1934); assay type: functional; details: Homo sapiens
[19] = biological target: T4, Heat shock factor protein 1 (Mus musculus, UniProt P38532); assay: HSF1 potentiators in luciferase reporter cells, confirmation, cell-based, NIH3T3, luminescence, dose retest (AID 435004); assay type: functional;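 also: stress induced by proteasome inhibitor MG132 added 30 min after compound; luciferase reporter driven by HSF1 response element in NIH3T3 cells; actives raise luminescence as potentiators of the MG132 stress response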
T4 sequence (P38532 whole entry): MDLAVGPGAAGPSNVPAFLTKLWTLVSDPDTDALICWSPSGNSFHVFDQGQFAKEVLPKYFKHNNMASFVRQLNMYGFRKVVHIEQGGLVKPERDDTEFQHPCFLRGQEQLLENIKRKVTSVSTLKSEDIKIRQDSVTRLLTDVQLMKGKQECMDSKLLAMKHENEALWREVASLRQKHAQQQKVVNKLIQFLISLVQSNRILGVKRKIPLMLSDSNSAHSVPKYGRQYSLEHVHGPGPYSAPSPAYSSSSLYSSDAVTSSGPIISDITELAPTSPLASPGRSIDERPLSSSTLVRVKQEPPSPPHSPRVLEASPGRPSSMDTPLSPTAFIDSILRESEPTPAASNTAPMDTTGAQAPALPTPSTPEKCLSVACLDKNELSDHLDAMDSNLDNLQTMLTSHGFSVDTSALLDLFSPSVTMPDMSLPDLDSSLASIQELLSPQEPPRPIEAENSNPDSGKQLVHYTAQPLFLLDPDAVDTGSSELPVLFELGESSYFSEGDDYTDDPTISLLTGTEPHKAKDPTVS

BJ [20] = assay: cytotoxicity toward Ras-transformed BJeLR fibroblasts, dose response, cell-based, alamar blue fluorescence, cherrypicked samples (AID 2631); assay type: functional; details: Homo sapiens;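 also: confirmatory dose-response assay in RAS-dependent BJ fibroblasts engineered with TERT, LT and ST, with cytotoxicity read by fluorescence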
[21] = Fluorescence-based cell-based high throughput dose response assay for inhibitors of the interaction of nucleotide-binding oligomerization domain containing 2 (NOD2) and the receptor-interacting serine-threonine kinase 2 (RIPK2).; assay type: functional; details: Homo sapiens
Beta Lactamase = Beta Lactamase (Pseudomonas aeruginosa, UniProt Q932Y6); assay: beta-lactamase reporter inhibitor potency, dose response, artefact control for NOD2-RIPK2 interaction inhibitor project, BLA reporter cells, FRET fluorescence (AID 651552); assay type: functional, cell-based
Sequence of Beta Lactamase (Q932Y6 whole entry): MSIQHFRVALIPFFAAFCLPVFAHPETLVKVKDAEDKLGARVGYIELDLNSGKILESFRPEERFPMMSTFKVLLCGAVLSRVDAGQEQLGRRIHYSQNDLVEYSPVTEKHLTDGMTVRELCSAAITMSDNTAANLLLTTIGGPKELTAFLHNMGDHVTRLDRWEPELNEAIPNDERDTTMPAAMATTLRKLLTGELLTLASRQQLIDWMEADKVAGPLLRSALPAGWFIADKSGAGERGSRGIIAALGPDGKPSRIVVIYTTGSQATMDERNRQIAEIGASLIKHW

[22] = biological target: T5, DNA repair protein RAD52 homolog (Homo sapiens, UniProt P43351); assay type: functional, biochemical
T5 sequence (P43351 whole entry): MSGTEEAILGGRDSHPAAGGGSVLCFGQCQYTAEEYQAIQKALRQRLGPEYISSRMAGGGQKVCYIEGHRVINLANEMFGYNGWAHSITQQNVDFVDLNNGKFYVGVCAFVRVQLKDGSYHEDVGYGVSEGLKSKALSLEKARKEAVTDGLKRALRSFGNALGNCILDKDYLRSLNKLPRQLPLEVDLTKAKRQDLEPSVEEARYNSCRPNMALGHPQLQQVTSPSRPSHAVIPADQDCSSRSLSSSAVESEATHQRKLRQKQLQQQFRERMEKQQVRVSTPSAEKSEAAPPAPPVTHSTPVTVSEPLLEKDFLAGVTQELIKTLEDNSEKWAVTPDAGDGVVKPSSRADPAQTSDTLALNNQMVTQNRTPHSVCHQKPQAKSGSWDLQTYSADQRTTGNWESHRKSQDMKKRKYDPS

[23] = inhibitors of intracellular T. cruzi replication, confirmation, NIH3T3 host cells, beta-gal luminescence (AID 2044); assay type: functional, cell-based;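 also: intracellular parasites grown in NIH/3T3 mouse fibroblasts as host cells; luminescent beta-galactosidase reporter signal from transgenic T. cruzi replicating inside host cells; inhibitors lower the luminescence signal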
[24] = cytotoxicity toward NIH3T3 fibroblasts, dose response, counter-screen, cell-based, ATP luminescence, mouse fibroblasts (AID 2010); assay type: functional;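 also: cells exposed to compound for about 90 hours before reading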
[25] = biological target: Heat shock protein HSP 90-alpha (Homo sapiens, UniProt P07900); assay type: functional, organism-based
[26] = cytotoxicity in NIH3T3 fibroblasts, dose response, cytotoxicity control for HSP40 inhibitor project, cell-based, CellTiter-Glo luminescence, cherry-pick, set 2 (AID 624265); assay type: functional

Sequence of Ras and Rab interactor 1/Tyrosine-protein kinase ABL1 (P00519 whole entry): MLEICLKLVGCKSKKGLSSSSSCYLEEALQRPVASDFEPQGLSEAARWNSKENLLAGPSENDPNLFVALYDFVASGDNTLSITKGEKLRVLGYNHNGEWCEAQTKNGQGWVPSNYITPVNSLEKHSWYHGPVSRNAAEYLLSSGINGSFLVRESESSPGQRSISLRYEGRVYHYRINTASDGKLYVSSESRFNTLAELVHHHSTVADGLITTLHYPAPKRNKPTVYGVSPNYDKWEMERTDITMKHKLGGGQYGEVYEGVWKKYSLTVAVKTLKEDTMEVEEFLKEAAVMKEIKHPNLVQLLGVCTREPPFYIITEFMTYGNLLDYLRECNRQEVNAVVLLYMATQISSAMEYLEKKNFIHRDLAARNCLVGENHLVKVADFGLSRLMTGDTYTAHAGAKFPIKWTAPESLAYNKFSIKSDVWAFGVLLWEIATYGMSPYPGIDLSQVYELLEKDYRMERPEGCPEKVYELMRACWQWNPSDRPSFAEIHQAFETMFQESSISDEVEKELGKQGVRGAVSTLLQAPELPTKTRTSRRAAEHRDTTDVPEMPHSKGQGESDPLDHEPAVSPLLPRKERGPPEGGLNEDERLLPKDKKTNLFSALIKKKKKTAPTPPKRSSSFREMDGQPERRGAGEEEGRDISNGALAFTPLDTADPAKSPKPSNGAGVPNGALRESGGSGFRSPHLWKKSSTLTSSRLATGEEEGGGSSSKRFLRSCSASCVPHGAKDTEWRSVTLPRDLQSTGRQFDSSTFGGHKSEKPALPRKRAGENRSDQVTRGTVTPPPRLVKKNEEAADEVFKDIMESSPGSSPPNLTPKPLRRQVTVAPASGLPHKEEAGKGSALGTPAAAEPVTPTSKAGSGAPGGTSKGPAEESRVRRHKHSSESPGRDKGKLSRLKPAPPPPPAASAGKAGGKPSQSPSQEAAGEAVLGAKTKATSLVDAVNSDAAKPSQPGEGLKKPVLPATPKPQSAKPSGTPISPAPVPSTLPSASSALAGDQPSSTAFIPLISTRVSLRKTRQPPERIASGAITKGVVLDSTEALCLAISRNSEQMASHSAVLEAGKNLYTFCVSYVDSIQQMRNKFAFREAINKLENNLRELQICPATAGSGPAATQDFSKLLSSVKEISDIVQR
Sequence of Ras and Rab interactor 1/Tyrosine-protein kinase ABL1 (Q13671 whole entry): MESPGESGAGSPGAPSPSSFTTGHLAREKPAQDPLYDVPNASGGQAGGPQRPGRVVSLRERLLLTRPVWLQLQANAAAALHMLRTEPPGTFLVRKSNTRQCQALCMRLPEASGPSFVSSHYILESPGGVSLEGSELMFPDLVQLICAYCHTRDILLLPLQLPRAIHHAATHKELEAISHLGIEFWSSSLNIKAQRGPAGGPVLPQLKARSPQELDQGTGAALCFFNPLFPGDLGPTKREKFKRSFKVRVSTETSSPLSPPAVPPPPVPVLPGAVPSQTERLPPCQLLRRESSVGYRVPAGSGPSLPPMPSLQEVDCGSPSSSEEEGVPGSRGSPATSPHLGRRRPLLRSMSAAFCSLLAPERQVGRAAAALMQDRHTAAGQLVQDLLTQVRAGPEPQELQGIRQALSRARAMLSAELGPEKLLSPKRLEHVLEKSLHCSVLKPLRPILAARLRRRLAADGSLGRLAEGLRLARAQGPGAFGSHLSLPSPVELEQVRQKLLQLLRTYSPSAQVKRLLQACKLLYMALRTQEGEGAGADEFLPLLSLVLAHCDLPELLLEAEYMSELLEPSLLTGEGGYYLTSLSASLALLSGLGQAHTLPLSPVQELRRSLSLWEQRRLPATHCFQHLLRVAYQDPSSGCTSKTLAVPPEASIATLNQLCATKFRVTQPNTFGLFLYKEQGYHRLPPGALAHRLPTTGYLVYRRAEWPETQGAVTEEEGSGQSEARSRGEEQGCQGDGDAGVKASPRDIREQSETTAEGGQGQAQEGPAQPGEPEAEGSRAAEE

O=C1C(=O)c2cccnc2-c2ncccc21
IC50 [1]: 6.59 µM (active) | EC50 [2]: 3.64 µM (active) | IC50 [3]: 12.1 µM (inactive) | AC50 (Paired box protein Pax-8): 3.32 µM (active) | AC50 [4]: 0.981 µM (active) | IC50 [5]: 12.5 µM (inactive) | IC50 [6]: 11.2 µM (inactive) | AC50 [7]: 8.53 µM (active) | IC50 [8]: > 123 µM (inactive) | IC50 [9]: 3.51 µM (active)

CCOc1ccc(Nc2nc(N)nc(CN(C)C3CCCCC3)n2)cc1
AC50 [10]: 71.6 µM (active)

O=C(O)CC1SC(N/N=C/C=C/c2ccccc2)=NC1=O (stereo unspecified)
IC50 [11]: 97.5 µM (inactive)

COc1ccc(/N=C2\S/C(=C\c3ccc(Cl)c([N+](=O)[O-])c3)C(=O)N2CCN(C)C)cc1
EC50 [12]: > 120 µM (not active) | EC50 (BJ [13]): 3.18 µM (inconclusive) | EC50 [14]: 8.46 µM (active) | EC50 [15]: 8.97 µM (active) | EC50 (BJ [16]): 9.3 µM (inconclusive) | EC50 (BJ [17]): 3.03 µM (inconclusive) | EC50 [18]: 2.8 µM (inconclusive) | EC50 [19]: 7.54 µM (active) | EC50 (BJ [20]): 1.16 µM (active) | IC50 [21]: 1.5 µM (active) | IC50 (Beta Lactamase): 49.7 µM (inactive) | AC50 [22]: 10.8 µM (active)

CCC(C)n1ncn(-c2ccc(N3CCN(c4ccc(OCC5COC(Cn6cncn6)(c6ccc(Cl)cc6Cl)O5)cc4)CC3)cc2)c1=O (stereo unspecified) [ITRACONAZOLE]
EC50 [12]: > 120 µM (not active) | EC50 [14]: 50 µM (active) | EC50 [15]: > 120 µM (not active) | EC50 [23]: 0.1 µM (active) | EC50 [24]: > 60 µM (not active) | AC50 [25]: < 0.195 µM (active) | AbsAC35_uM [26]: 105.6 µM
